The experiment addresses T1, recombinant human PKM2 (Homo sapiens, UniProt P14618).
T1 construct: His (N); purchased R&D Systems
Briefly: Human PKM2 activation assay (Kinase-Glo Plus luminescent detection of generated ATP). Type of experiment: biochemical. Particulars: for hPKM2 Emax / Emax: percentage activation normalised to DMSO vehicle (LOW) and 5 μM TEPP-46 (HIGH); for EC50: recombinant human PKM2 activation, 4-parameter logistic fit, read-out: hPKM2 EC50; for Emax: read-out: hPKM2 Emax. The procedure:
Compound activation of recombinant human PKM2 pyruvate kinase activity was determined by biochemical assay. N-terminal His-tagged hPKM2 was sourced from R&D Systems and its substrates phosphoenolpyruvate (PEP) and ADP from Sigma-Aldrich and 2Bscientific Ltd, respectively. The Kinase-Glo® Plus luminescence assay was from Promega. All other reagents were from Sigma-Aldrich. Test Compounds were prepared as 10 mM DMSO stocks and dilution series prepared in DMSO for direct dilution into Assay Buffer comprising 50 mM imidazole, 50 mM KCl, 7 mM MgCl2, 0.01% Tween20, 0.05% BSA (pH 7.2).
Human PKM2 was diluted into Assay Buffer comprising 50 mM imidazole, 50 mM KCl, 7 mM MgCl2, 0.01% Tween20, 0.05% BSA (pH 7.2) to a final concentration of […]. Enzyme-Assay Buffer mix was dispensed into a 384-well shallow-well white-walled plate (PerkinElmer) and Test Compounds added by acoustic dispense (Echo®, Labcyte Inc.).
After 60 minutes' incubation on an orbital shaker (300 rpm, 26° C.), enzyme activity was quantified by the luminescent detection of generated ATP. Kinase-Glo® Plus reagent was added to each well and the plates incubated for a further 15 minutes on an orbital shaker in the dark (300 rpm, 26° C.) before luminescence measurement on a plate reader (PHERAstar® FSX, BMG Labtech).
Percentage activation was calculated by normalising […] signals to plate LOW (DMSO vehicle) and HIGH (5 μM TEPP-46) controls. EC50 and Emax values were determined from 4-parameter logistic fits of compound concentration-response curves.
(In general: Kinase-Glo reads ATP consumption through a luciferase reaction.)

T1 sequence (P14618 2-531 limits assumed): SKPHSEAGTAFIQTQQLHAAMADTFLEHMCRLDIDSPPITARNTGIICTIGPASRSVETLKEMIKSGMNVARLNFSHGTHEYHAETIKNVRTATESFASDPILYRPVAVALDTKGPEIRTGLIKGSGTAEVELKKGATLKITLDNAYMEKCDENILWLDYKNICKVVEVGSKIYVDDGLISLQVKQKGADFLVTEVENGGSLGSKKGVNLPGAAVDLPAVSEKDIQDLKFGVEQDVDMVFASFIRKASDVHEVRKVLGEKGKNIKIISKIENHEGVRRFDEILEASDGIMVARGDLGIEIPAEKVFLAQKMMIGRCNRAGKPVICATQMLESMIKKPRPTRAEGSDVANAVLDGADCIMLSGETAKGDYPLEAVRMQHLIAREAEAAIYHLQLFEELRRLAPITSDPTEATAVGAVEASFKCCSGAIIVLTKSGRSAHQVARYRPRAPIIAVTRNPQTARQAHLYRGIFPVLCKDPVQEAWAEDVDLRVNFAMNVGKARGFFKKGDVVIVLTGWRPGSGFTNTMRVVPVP

By EC50 is commonly meant the concentration needed to bring the measured effect to its halfway point. Regarding “2-(3-aminobenzyl)-6-((2-mathylthiazol-4-yl)sulfonyl)phthalazin-1(2H)-one [Example 151]”, the “hPKM2 Emax” value worked out at 92.52% and the EC50 was 0.0365 µM.
By Emax is commonly meant the size of the effect at its maximum, as opposed to the concentration needed. For `COc1ccc(Cn2ncc3cc(S(=N)(=O)c4ccc5c(c4)CCO5)ccc3c2=O)cn1` (racemic) [Example 127, 6-(2,3-dihydrobenzofuran-5-sulfonimidoyl)-2-((6-methoxypyridin-3-yl)methyl)phthalazin-1(2H)-one], the maximal effect (Emax) was found to be 68.3% and the EC50 stood at 0.0433 µM.
In the same order, the values of `COc1ccc(Cn2ncc3cc(S(=N)(=O)c4ccccc4)ccc3c2=O)cn1` (racemic) [Example 131, 2-((6-methoxypyridin-3-yl)methyl)-6-(phenylsulfonimidoyl)phthalazin-1(2H)-one] are 99.7% and 0.3 µM.
In the case of `COc1ccc(Cn2ncc3cc(S(=N)(=O)c4ccc(OC(F)F)cc4)ccc3c2=O)cn1` (racemic) [Example 134, 6-(4-(difluoromethoxy)phenylsulfonimidoyl)-2-((6-methoxypyridin-3-yl)methyl)phthalazin-1(2H)-one], the Emax is 102% and the EC50 was 0.0881 µM.
In the same order, the values of `COc1ccc(S(=N)(=O)c2ccc3c(=O)n(Cc4ccc(OC)nc4)ncc3c2)cc1` (racemic) [Example 137, 6-(4-methoxyphenylsulfonimidoyl)-2-((6-methoxypyridin-3-yl)methyl)phthalazin-1(2H)-one] are 81.9% and 0.129 µM.
In the same order, the values of `COc1ccc(Cn2ncc3cc([S@](=N)(=O)c4ccccc4)ccc3c2=O)cn1` (single isomer, unassigned) [Example 132] are 95.1% and 0.289 µM.
`COc1ccc(Cn2ncc3cc([S@@](=N)(=O)c4ccccc4)ccc3c2=O)cn1` (single isomer, unassigned) [Example 133]: the Emax came out at 77.3% and the EC50 was determined as 0.444 µM.
In the same order, the values of `COc1ccc(Cn2ncc3cc([S@](=N)(=O)c4ccc(OC(F)F)cc4)ccc3c2=O)cn1` (single isomer, unassigned) [Example 135] are 79.9% and 0.111 µM.
In the same order, the values of `COc1ccc(Cn2ncc3cc([S@@](=N)(=O)c4ccc(OC(F)F)cc4)ccc3c2=O)cn1` (single isomer, unassigned) [Example 136] are 97.2% and 0.0465 µM.
Turning to `COc1ccc([S@](=N)(=O)c2ccc3c(=O)n(Cc4ccc(OC)nc4)ncc3c2)cc1` (single isomer, unassigned) [Example 139], the “hPKM2 Emax” value came to 81.9% and the EC50 is 0.129 µM.
On to `C[C@H](O)c1cccc(Cn2ncc3cc(S(=O)(=O)c4cnn(C)c4)ccc3c2=O)n1` (single isomer, unassigned) [Example 278], for which the Emax was 78.6% and the EC50 came to 0.434 µM.
On to `C[C@@H](O)c1cccc(Cn2ncc3cc(S(=O)(=O)c4cnn(C)c4)ccc3c2=O)n1` (single isomer, unassigned) [Example 279], for which the Emax stood at 88.7% and the EC50 was found to be 0.277 µM.
In the same order, the values of `Cc1cccc(Cn2ncc3cc(S(=O)(=O)c4csc([C@@H](C)O)n4)ccc3c2=O)n1` (single isomer, unassigned) [Example 296] are 92.2% and 0.111 µM.
Consider `Cc1cccc(Cn2ncc3cc(S(=O)(=O)c4csc([C@H](C)O)n4)ccc3c2=O)n1` (single isomer, unassigned) [Example 297], for which the Emax was determined as 94.7% and the EC50 amounted to 0.103 µM.
In the same order, the values of `N=[S@](=O)(c1cn[nH]c1)c1ccc2c(=O)n(Cc3ccc4c(n3)CCO4)ncc2c1` (stereo in doubt) [Example 363] are 105% and 0.128 µM.
In the case of `N=[S@@](=O)(c1cn[nH]c1)c1ccc2c(=O)n(Cc3ccc4c(n3)CCO4)ncc2c1` (stereo in doubt) [Example 364], the Emax turned out to be 114% and the EC50 came out at 0.035 µM.
For the compound `COc1ccc(S(=O)(=O)c2ccc3c(=O)n(Cc4ccnc(O)c4)ncc3c2)cc1` [Example 3, 2-((2-hydroxypyridin-4-yl)methyl)-6-((4-methoxyphenyl)sulfonyl)phthalazin-1(2H)-one], the Emax is 92.6% and the EC50 came out at 0.566 µM.
For the compound `COc1ccc(Cn2ncc3cc(S(=O)(=O)c4ccccc4)ccc3c2=O)c(C(N)=O)n1` [Example 14, 6-methoxy-3-((1-oxo-6-(phenylsulfonyl)phthalazin-2(1H)-yl)methyl)picolinamide], the Emax worked out at 95.5% and the EC50 is 0.147 µM.
For the compound `Cc1cn(CCO)nc1Cn1ncc2cc(S(=O)(=O)c3ccccc3)ccc2c1=O` [Example 16, 2-((1-(2-hydroxyethyl)-4-methyl-1H-pyrazol-3-yl)methyl)-6-(phenylsulfonyl)phthalazin-1(2H)-one], the Emax came to 92.6% and the EC50 is 0.154 µM.
In the same order, the values of `N#Cc1c[nH]nc1Cn1ncc2cc(S(=O)(=O)c3ccccc3)ccc2c1=O` [Example 18, 3-((1-oxo-6-(phenylsulfonyl)phthalazin-2(1H)-yl)methyl)-1H-pyrazole-4-carbonitrile] are 98.5% and 0.841 µM.
In the same order, the values of `O=c1c2ccc(S(=O)(=O)c3ccccc3)cc2cnn1Cc1ccsc1CO` [Example 22, 2-((2-(hydroxymethyl)thiophen-3-yl)methyl)-6-(phenylsulfonyl)phthalazin-1(2H)-one] are 86.1% and 0.102 µM.
For the compound `N#Cc1sccc1Cn1ncc2cc(S(=O)(=O)c3ccccc3)ccc2c1=O` [Example 23, 3-((1-oxo-6-(phenylsulfonyl)phthalazin-2(1H)-yl)methyl)thiophene-2-carbonitrile], the Emax was found to be 112% and the EC50 worked out at 0.265 µM.
In the same order, the values of `O=c1c2ccc(S(=O)(=O)c3ccccc3)cc2cnn1Cc1cc(C2CC2)[nH]n1` [Example 25, 2-((5-cyclopropyl-1H-pyrazol-3-yl)methyl)-6-(phenylsulfonyl)phthalazin-1(2H)-one] are 126% and 0.198 µM.
In the same order, the values of `O=c1c2ccc(S(=O)(=O)c3ccccc3)cc2cnn1Cc1n[nH]cc1CO` [Example 26, 2-((4-(hydroxymethyl)-1H-pyrazol-3-yl)methyl)-6-(phenylsulfonyl)phthalazin-1(2H)-one] are 106% and 0.838 µM.
In the same order, the values of `O=c1c2ccc(S(=O)(=O)c3ccccc3)cc2cnn1Cc1cc2n(n1)CCO2` [Example 27, 2-((2,3-dihydropyrazolo[5,1-b]oxazol-6-yl)methyl)-6-(phenylsulfonyl)phthalazin-1(2H)-one] are 122% and 0.07 µM.
In the case of `O=c1c2ccc(S(=O)(=O)c3ccccc3)cc2cnn1Cc1ccn(C(F)F)n1` [Example 28, 2-((1-(difluoromethyl)-1H-pyrazol-3-yl)methyl)-6-(phenylsulfonyl)phthalazin-1(2H)-one], the Emax turned out to be 103% and the EC50 was 0.162 µM.
As to `COc1ccc(Cn2ncc3cc(S(=O)(=O)c4ccccc4)ccc3c2=O)cc1` [Example 49, 2-(4-methoxybenzyl)-6-(phenylsulfonyl)phthalazin-1(2H)-one], the Emax was determined as 98.2% and the EC50 was found to be 0.122 µM.
In the case of `CC(c1cccnc1)n1ncc2cc(S(=O)(=O)c3ccccc3)ccc2c1=O` (stereo not drawn) [Example 69, 6-(phenylsulfonyl)-2-(1-(pyridin-3-yl)ethyl)phthalazin-1(2H)-one], the Emax worked out at 75.5% and the EC50 turned out to be 1.17 µM.
Take `Cc1cc(Cn2ncc3cc(S(=O)(=O)c4ccccc4)ccc3c2=O)no1` [Example 80, 2-((5-methylisoxazol-3-yl)methyl)-6-(phenylsulfonyl)phthalazin-1(2H)-one]: the Emax is 93.2% and the EC50 came to 0.799 µM.
Consider `CCn1nccc1Cn1ncc2cc(S(=O)(=O)c3ccccc3)ccc2c1=O` [Example 83, 2-((1-ethyl-1H-pyrazol-5-yl)methyl)-6-(phenylsulfonyl)phthalazin-1(2H)-one], for which the Emax is 78.1% and the EC50 turned out to be 0.466 µM.
Turning to `NC(=O)c1cccc(Cn2ncc3cc(S(=O)(=O)c4ccccc4)ccc3c2=O)c1` [Example 84, 3-((1-oxo-6-(phenylsulfonyl)phthalazin-2(1H)-yl)methyl)benzamide], the maximum response (Emax) turned out to be 93.1% and the EC50 is 0.115 µM.
In the same order, the values of `NC(=O)c1occc1Cn1ncc2cc(S(=O)(=O)c3ccccc3)ccc2c1=O` [Example 85, 3-((1-oxo-6-(phenylsulfonyl)phthalazin-2(1H)-yl)methyl)furan-2-carboxamide] are 113% and 0.0715 µM.
For the compound `NC(=O)c1ccc(Cn2ncc3cc(S(=O)(=O)c4ccccc4)ccc3c2=O)o1` [Example 86, 5-((1-oxo-6-(phenylsulfonyl)phthalazin-2(1H)-yl)methyl)furan −2-carboxamide], the Emax was 92.2% and the EC50 is 0.765 µM.

The record behind these values is patent publication US20260152487A1 (Sitryx Therapeutics Limited, priority 2021, published 2026).
